# According to patent US10828315B2 (Madrigal Pharmaceuticals, Inc., priority 2013, dated 2020):
# pIC50: −log10 of the molar value. Several values for one entry are separate records, joined by “and”; a condition that tells them apart may be missing. Equal entries are not always repeated. Where two headings read alike, the source gives them in different places.
# Assays:
# [1] = test system: human urinary bladder cancer cell line RT-112; experiment: Cytotoxicity assay (CellTiter-Glo, 72 h), RT-112; type: cell-based; conditions: read-out: Cytotoxicity (IC50, nM) RT-112
# Description: (§1) Cytotoxicity of SDC-TRAP molecules was determined in three cancer cell lines. […] 80 μL of CellTiter-Glo was added to each well, followed by room temperature incubation in the dark for 15 minutes. Cell was determined by luminescence. IC50 was calculated using XLfit™ software.
# [2] = test system: HER2; experiment: HER2 degradation assay with BT-474 cell line (Example 12, FACS); type: cell-based, human
# [3] = Mouse plasma stability protocol, up to 1 h (Examples 16-18)
# [4] = test system: human breast cancer cell line BT-474; experiment: Cytotoxicity assay (CellTiter-Glo, 72 h), BT-474; type: cell-based; conditions: read-out: Cytotoxicity (IC50, nM) BT-474
# Description: as §1
# [5] = test system: human urinary bladder cancer cell line SW780; experiment: Cytotoxicity assay (CellTiter-Glo, 72 h), SW780; type: cell-based; conditions: read-out: Cytotoxicity (IC50, nM) SW-780
# Description: as §1
# [6] = test system: HER2; experiment: HER2 degradation in BT-474 cells (Example 3, Methods 1 and 2); type: cell-based, human; conditions: 0.5 μM, overnight
# Description: This example illustrates how a HER2 degradation assay may be used as a test to determine and select Hsp90-targeting moieties suitable for use in SDC-TRAPs of the invention, and further illustrates the ability of SDC-TRAPs to target cells preferentially expressing Hsp90. Such a test may further be used to determine the Hsp90 binding ability of SDC-TRAPs of the invention, as well as through competitive binding assays and cell-based Hsp90 client protein degradation assays known in the art.
# After treatment, each cytoplasmic sample is prepared from 1×10^6 cells by incubation of cell lysis buffer (#9803, Cell Signaling Technology) on ice for 10 minutes. The resulting supernatant used as the cytosol fractions is dissolved with sample buffer for SDS-PAGE and run on a SDS-PAGE gel, blotted onto a nitrocellulose membrane by using semi-dry transfer. Non-specific binding to nitrocellulose is blocked with 5% skim milk in TBS with 0.5% Tween at room temperature for 1 hour, then probed with anti-HER2/ErB2 mAb (rabbit IgG, #2242, Cell Signaling) and anti-Tubulin (T9026, Sigma) as housekeeping control protein. HRP-conjugated goat anti-rabbit IgG (H+L) and HRP-conjugated horse anti-mouse IgG (H+L) are used as secondary Ab (#7074#7076, Cell Signaling) and LumiGLO reagent, 20× Peroxide (#7003, Cell Signaling) is used for visualization. The Hsp90 client protein HER2 is degraded when cells are treated with Hsp90-targeting moieties or SDC-TRAPs of the invention.
# BT-474 cells are plated in the interior 60 wells of a 96 well black clear bottom plate (20,000 cells/well) in DMEM medium, with DMEM media in the surrounding 36 wells, and incubated at 37° C. with 5% CO2 overnight. On the second day, concentration response curve source plates are produced (10 point, 3-fold dilution of compounds in DMSO) followed by a 1:30 dilution in an intermediate dilution plate containing DMEM. Compound is transferred from the intermediate plate to the cell plate at a dilution of 1:10. The cells are then incubated at 37° C. with 5% CO2 for 24 hours.
# Cells are then fixed in 4% phosphate-buffered paraformaldehyde for 30 minutes at room temperature and then permeabilized by washing five times with 0.1% Triton X-100 in PBS for 5 minutes at room temperature on a shaker. […] Cells are washed five times with 0.1% Tween-20 in PBS for 5 minutes at room temperature on a shaker and incubated with fluorescently-labeled secondary antibody (LI-COR, #926-32211) diluted 1:1000 in blocking buffer, and DRAQ5 nuclear stain (Biostatus Limited, # DRAQ5) diluted 1:10,000, at room temperature on a shaker for 1 hour. Cells are washed 5 times with 0.1% Tween-20 in PBS for 5 minutes at room temperature on a shaker and imaged on a LI-COR Odyssey imaging station. The raw data is normalized to DRAQ5 and the HER2 EC50 is calculated using XLfit™.
# [7] = mouse, plasma, 1 h
# [8] = Artificial membrane permeability assay (PAMPA); conditions: incubation 5 h, first table
# [9] = % Remaining of parent after 1 h incubation in mouse plasma at 37° C. (10 μM)
# [10] = Tissue Distribution Data for SDC-TRAP-0098, Time (h) 0.083
# [11] = Tissue Distribution Data for SDC-TRAP-0098, Time (h) 1
# [12] = Tissue Distribution Data for SDC-TRAP-0098, Time (h) 6
# [13] = Tissue Distribution Data for SDC-TRAP-0098, Time (h) 24
structure (smiles),measurement,setting,value
"COc1ccc(-c2cnoc2-c2cc(OC)c(OC)c(OC)c2)cc1OC(=O)N1CCN(Cc2ccc(-n3c(O)nnc3-c3cc(C(C)C)c(O)cc3O)cc2)CC1 [SDC-TRAP-0098, 2-Methoxy-5-(5-(3,4,5-trimethoxyphenyl)isoxazol-4-yl)phenyl-4-(4-(3-(2,4-dihydroxy-5-isopropylphenyl)-5-hydroxy-4H-1,2,4-triazol-4-yl)benzyl) piperazine-1-carboxylate]",IC50,"[1]; RT-112, 72 h",22 nM
same,pIC50,[2],6.63
same,% Remaining (1 h),[3]; [9],96.0%
same,% Remaining (1 h),"[3]; mouse plasma, 1 h",96.0%
same,IC50,"[4]; BT-474, 72 h",41 nM
same,IC50,"[5]; SW780, 72 h",257 nM
same,Tumor Conc.,[10],5.02 nmol/g of tissue
same,Tumor/Plasma Ratio,[10],0.01
same,Tumor Conc.,[11],4.62 nmol/g of tissue
same,Tumor/Plasma Ratio,[11],0.62
same,Tumor Conc.,[12],3.18 nmol/g of tissue
same,Tumor/Plasma Ratio,[12],8.22
same,Tumor Conc.,[13],0.920 nmol/g of tissue
same,Tumor/Plasma Ratio,[13],300
same,Tumor Conc.,"Tissue Distribution Data for SDC-TRAP-0098, Time (h) 48",0.182 nmol/g of tissue
"CCNC(=O)c1nnc(-c2cc(C(C)C)c(O)cc2O)n1-c1ccc(C(=O)N2CCN(c3cc(C)c(OC(=O)Nc4cccc5c4CN(C4CCC(=O)NC4=O)C5=O)c(C)c3)CC2)cc1 (centres unmarked) [SDC-TRAP-0178, 4-(4-(4-(3-(2,4-dihydroxy-5-isopropylphenyl)-5-(ethylcarbamoyl)-4H-1,2,4-triazol-4-yl)benzoyl)piperazin-1-yl)-2,6-dimethylphenyl (2-(2,6-dioxopiperidin-3-yl)-1-oxoisoindolin-4-yl)carbamate]",IC50,"[1]; RT-112, 72 h",29 nM
same,pIC50,[2],6.77 and 7.04
same,pIC50,"[2]; BT-474 cells, overnight",7.04
same,% Remaining (1 h),[3]; [9],82.0%
same,% Remaining (1 h),"[3]; mouse plasma, 37° C., 10 μM",82.0%
same,IC50,"[4]; BT-474, 72 h",37 nM
same,IC50,"[5]; SW780, 72 h",> 10000 nM
same,Plasma Conc.,"after SDC-TRAP-0178, 1 h",217000 nM
same,Tumor Conc.,"after SDC-TRAP-0178, 1 h",12.8 nmol/g of tissue
same,Tumor/Plasma Ratio,"after SDC-TRAP-0178, 1 h",0.0589
same,Plasma Conc.,"after SDC-TRAP-0178, 6 h",4510 nM
same,Tumor Conc.,"after SDC-TRAP-0178, 6 h",7.17 nmol/g of tissue
same,Tumor/Plasma Ratio,"after SDC-TRAP-0178, 6 h",1.59
same,Plasma Conc.,"after SDC-TRAP-0178, 24 h",28 nM
same,Tumor Conc.,"after SDC-TRAP-0178, 24 h",2.81 nmol/g of tissue
same,Tumor/Plasma Ratio,"after SDC-TRAP-0178, 24 h",100
same,Plasma Conc.,"after SDC-TRAP-0178, 48 h",241 nM
same,Tumor Conc.,"after SDC-TRAP-0178, 48 h",1.01 nmol/g of tissue
same,Tumor/Plasma Ratio,"after SDC-TRAP-0178, […]",0.0179
"C=CCNC1=C2C[C@@H](C)C[C@H](OC)[C@H](O)[C@@H](C)/C=C(\C)[C@H](OC(N)=O)[C@@H](OC)/C=C\C=C(/C)C(=O)NC(=CC1=O)C2=O [17-AAG, reference compound]",degradation of HER2 (western blot),[6],partial degradation of HER2
"CC(C)c1cc(-c2nnc(O)n2-c2ccc(CN3CCN(C(=O)c4ccc(CCc5c[nH]c6nc(N)[nH]c(=O)c56)cc4)CC3)cc2)c(O)cc1O [SDC-TRAP-0068, 2-amino-5-(4-(4-(4-(3-(2,4-dihydroxy-5-isopropylphenyl)-5-hydroxy-4H-1,2,4-triazol-4-yl)benzyl)piperazine-1-carbonyl)phenethyl)-3H-pyrrolo[2,3-d]pyrimidin-4(7H)-one]",IC50,"[1]; RT-112, 72 hours",74 nM
same,IC50,"[4]; BT-474, 72 hours",70 nM
same,IC50,"[5]; SW780, 72 hours",202 nM
same,% Remaining (1 h),[7]; 10 µM,96.5%
same,% Remaining (1 h),[7]; 10 μM,96.5%
"CC(C)c1cc(C(=O)N2Cc3ccc(NC(=O)CCCc4nc5cc(N(CCCl)CCCl)ccc5n4C)cc3C2)c(O)cc1O [SDC-TRAP-0211, 4-(5-(bis(2-chloroethyl)amino)-1-methyl-1H-benzo[d]imidazol-2-yl)-N-(2-(2,4-dihydroxy-5-isopropylbenzoyl)isoindolin-5-yl)butanamide]",IC50,"[1]; RT-112, 72 h",110 nM
same,pIC50,"[2]; BT-474 cells, overnight",6.54
same,IC50,"[4]; BT-474, 72 h",249 nM
same,IC50,"[5]; SW780, 72 h",2340 nM
"CCc1c2c(nc3ccc(OC(=O)N4CCN(C(=O)Cn5ccc6cc(-n7c(O)nnc7-c7cc(C(C)C)c(O)cc7O)ccc65)CC4C)cc13)-c1cc3c(c(=O)n1C2)COC(=O)C3(O)CC (centres unmarked) [SDC-TRAP-0201, 4,11-Diethyl-4-hydroxy-3,14-dioxo-3,4,12,14-tetrahydro-1H-pyrano[3′,4′:6,7]indolizino[1,2-b]quinolin-9-yl 4-(2-(5-(3-(2,4-dihydroxy-5-isopropylphenyl)-5-hydroxy-4H-1,2,4-triazol-4-yl)-1H-indol-1-yl)acetyl)-2-methylpiperazine-1-carboxylate]",IC50,"[1]; RT-112, 72 h",72 nM
same,pIC50,[2],5.33
same,IC50,"[4]; BT-474, 72 h",1410 nM
same,IC50,"[5]; SW780, 72 h",1100 nM
"CCc1c2c(nc3ccc(OC(=O)N4CCC[C@H]4C(=O)N4CCN(c5ccc(-n6c(O)nnc6-c6cc(C(C)C)c(O)cc6O)cc5)CC4)cc13)-c1cc3c(c(=O)n1C2)COC(=O)[C@]3(O)CC [SDC-TRAP-0204, (S)—(S)-4,11-diethyl-4-hydroxy-3,14-dioxo-3,4,12,14-tetrahydro-1H-pyrano[3′,4′:6,7]indolizino[1,2-b]quinolin-9-yl 2-(4-(4-(3-(2,4-dihydroxy-5-isopropylphenyl)-5-hydroxy-4H-1,2,4-triazol-4-yl)phenyl)piperazine-1-carbonyl)pyrrolidine-1-carboxylate]",IC50,"[1]; RT-112, 72 h",1310 nM
same,pIC50,[2],< 5.00
same,IC50,"[4]; BT-474, 72 h",8060 nM
same,IC50,"[5]; SW780, 72 h",> 10000 nM
"CC(C)c1cc(-c2nnc(O)n2-c2ccc(CN3CCN(C(=O)CCCc4nc5cc(N(CCCl)CCCl)ccc5n4C)CC3)cc2)c(O)cc1O [SDC-TRAP-0069, 4-(5-(bis (2-chloroethyl)amino)-1-methyl-1H-benzo[d]imidazol-2-yl)-1-(4-(4-(3-(2,4-dihydroxy-5-isopropylphenyl)-5-hydroxy-4H-1,2,4-triazol-4-yl)benzyl)piperazin-1-yl)butan-1-one]",IC50,"[1]; RT-112, 72 h",909 nM
same,pIC50,"[2]; BT-474 cells, overnight",5.91
same,IC50,"[4]; BT-474, 72 h",914 nM
same,IC50,"[5]; SW780, 72 h",1340 nM
"Nc1cccc2c1CN(C1CCC(=O)NC1=O)C2=O (centres unmarked) [Lenalidomide, lenalidomide, reference compound]",IC50,"[1]; RT-112, 72 hours",> 10000 nM
same,Mass Retention,[8],26.0%
same,IC50,"[4]; BT-474, 72 hours",> 10000 nM
same,IC50,"[5]; SW780, 72 hours",> 10000 nM
same,Tumor Conc.,"female, SCID, mouse, in vivo, 24 h",0.0574 nmol/g of tissue
same,Tumor Conc.,"female, SCID, mouse, in vivo, 48 h",0.0143 nmol/g of tissue
same,Plasma Conc.,"mouse, in vivo",BQL
same,Tumor Conc.,"mouse, in vivo",BQL
"CCNC(=O)c1nnc(-c2cc(C(C)C)c(O)cc2O)n1-c1ccc2c(c1)CN(Cc1cc(OC)c(OC(=O)Nc3cccc4c3CN(C3CCC(=O)NC3=O)C4=O)c(OC)c1)C2 (centres unmarked) [SDC-TRAP-0196, 4-((5-(3-(2,4-dihydroxy-5-isopropylphenyl)-5-(ethylcarbamoyl)-4H-1,2,4-triazol-4-yl)isoindolin-2-yl)methyl)-2,6-dimethoxyphenyl (2-(2,6-dioxopiperidin-3-yl)-1-oxoisoindolin-4-yl)carbamate]",IC50,"[1]; RT-112, 72 h",31 nM
same,Mass Retention,[8],22.3%
same,pIC50,[2],7.05
same,% Remaining (1 h),[3]; [9],66.2%
same,IC50,"[4]; BT-474, 72 h",17 nM
same,IC50,"[5]; SW780, 72 h",> 10000 nM
"CC(C)c1cc(-c2nnc(O)n2-c2ccc(CN3CCN(C(=O)ONC(=O)CCCCCCC(=O)Nc4ccccc4)CC3)cc2)c(O)cc1O [SDC-TRAP-0117, N1-((4-(4-(3-(2,4-dihydroxy-5-isopropylphenyl)-5-hydroxy-4H-1,2,4-triazol-4-yl)benzyl)piperazine-1-carbonyl)oxy)-N8-phenyloctanediamide]",IC50,"[1]; RT-112, 72 hours",152 nM
same,IC50,"[4]; BT-474, 72 hours",452 nM
same,IC50,"[5]; SW780, 72 hours",284 nM
same,% Remaining (1 h),[7]; 10 µM,3.97%
